Test: refractive index (Na D-line) (dimensionless); wn = mass fraction of the nth substance listed
Details: 100 kPa, Liquid, Standard Abbe refractometry

CCOC(C)=O [ethyl acetate] + O
refractive index
Details | 293.15 K | 298.15 K | 303.15 K | 308.15 K | 313.15 K | 318.15 K
w1 = 0.009 | 1.3341 | 1.3335 | 1.3331 | 1.3327 | 1.3321 | 1.3317
w1 = 0.027 | 1.3352 | 1.3348 | 1.3342 | 1.3337 | 1.3332 | 1.3326
w1 = 0.045 | 1.3368 | 1.3364 | 1.3358 | 1.3353 | 1.3346 | 1.3342
w1 = 0.064 | 1.3384 | 1.338 | 1.3377 | 1.3368 | 1.3358 | 1.3352
w1 = 0.082 | 1.3391 | 1.3388 | 1.3383 | 1.3378 | 1.3373 | 1.3365

O [water] + [Cl-].[Na+]
w2 = 0
Details | refractive index
293.15 K | 1.3335
298.15 K | 1.333
303.15 K | 1.3323
308.15 K | 1.332
313.15 K | 1.3316
318.15 K | 1.3312

O [water] + OC[C@H]1O[C@H](O)[C@H](O)[C@@H](O)[C@@H]1O
w2 = 0
Details | refractive index
293.15 K | 1.3335
298.15 K | 1.333
303.15 K | 1.3323
308.15 K | 1.332
313.15 K | 1.3316
318.15 K | 1.3312

O [water] + CCOC(C)=O
w2 = 0
Details | refractive index
293.15 K | 1.3335
298.15 K | 1.333
303.15 K | 1.3323
308.15 K | 1.332
313.15 K | 1.3316
318.15 K | 1.3312

[Cl-].[Na+] [sodium chloride] + O
refractive index
Details | 293.15 K | 298.15 K | 303.15 K | 308.15 K | 313.15 K | 318.15 K
w1 = 0.01 | 1.3365 | 1.3359 | 1.3354 | 1.3346 | 1.3339 | 1.3333
w1 = 0.05 | 1.3434 | 1.3428 | 1.3422 | 1.3414 | 1.3407 | 1.3398
w1 = 0.1 | 1.3521 | 1.3514 | 1.3508 | 1.3502 | 1.3495 | 1.3485
w1 = 0.15 | 1.361 | 1.3604 | 1.3596 | 1.359 | 1.358 | 1.3572
w1 = 0.2 | 1.3702 | 1.3692 | 1.3683 | 1.3678 | 1.367 | 1.3661
w1 = 0.25 | 1.3795 | 1.3788 | 1.378 | 1.3773 | 1.3767 | 1.3757

[Cl-].[K+] [potassium chloride] + O
refractive index
Details | 293.15 K | 298.15 K | 303.15 K | 308.15 K | 313.15 K | 318.15 K
w1 = 0.01 | 1.3349 | 1.3345 | 1.334 | 1.3335 | 1.333 | 1.332
w1 = 0.05 | 1.3405 | 1.3401 | 1.3396 | 1.339 | 1.3384 | 1.3379
w1 = 0.1 | 1.3486 | 1.348 | 1.3476 | 1.347 | 1.3464 | 1.346
w1 = 0.15 | 1.3577 | 1.3571 | 1.3566 | 1.356 | 1.3554 | 1.355
